Assay: Inhibitory activity against fuc-TVII

IC50 [µg/mL] | SMILES
2.4 | CC(C)=CCC/C(C)=C/CC/C(C)=C/CC/C(C)=C/CC/C(C)=C/CC/C(C)=C/CC/C(C)=C/CC/C(C)=C/CC/C(C)=C/Cc1cc(O)ccc1OS(=O)(=O)[O-].[Na+]
3.9 | CC(C)=CCC/C(C)=C/CC/C(C)=C/CC/C(C)=C/CC/C(C)=C/CC/C(C)=C/CC/C(C)=C/CC/C(C)=C/Cc1cc(O)ccc1OS(=O)(=O)[O-].[Na+]

Source: ChEMBL document CHEMBL1132060, “Octa- and nonaprenylhydroquinone sulfates, inhibitors of alpha1,3-fucosyltransferase VII, from an Australian marine sponge Sarcotragus sp” (Bioorg Med Chem Lett, 1999)
